From patent US11117932B2, “Peptides for specific inhibition of Jag 1-Notch 1 pathway” (The Hong Kong Polytechnic University, priority 2018, dated 2021)
Like-named read-outs stand apart in the source and are kept apart here. Residues, ends and D or L forms follow the SMILES beside them.

Tests used:
[1] = test system: Jag1-induced NICD1; experiment: Co-culture assay, Jag1-induced NICD1 level; assay type: cell-based, human; settings: N1 at 50 μM
Protocol: (§1) Specificity of N1 (SEQ ID NO: 10) peptide in inhibiting different Notch ligand-induced Notch signaling was investigated using in vitro co-culture assay. HEK293T or CHO cells expressing Notch ligand (either Jag1, DLL1 or DLL4) are co-cultured with Notch1- or Notch2-expressing cells. Notch1 and Notch2 signalling can be measured by either luciferase reporter assay or by the formation of NICD1 and NICD2. […] Half inhibition is reached at between 50 to 100 μM. […] This contrasts with DAPT which affects all the above interactions.
(§2) The cleaved Notch1 (Val1744) (D3B8) rabbit monoclonal antibody (CST) and Notch2 (Cleaved Ala1734) rabbit monoclonal antibody at 1:1000 dilution were used to detect human Notch intracellular domain (NICD1) and Notch2 intracellular domain (NICD2), respectively. β-actin was detected using a mouse monoclonal antibody (Santa Cruz Biotechnology) at 1:3000 dilution.

[2] = in vitro; assay type: cell-based; settings: mouse
Protocol: (§3) HCT-116, HCT-15, S1-M1-80, S1, L929, HEK293T-Jagged-1 were seeded in each well of a 96-well plate with a series of concentrations (a serial dilution from 1000μM to 0.5 μM) of peptides or drugs including DAPT, Topotecan at 37° C. with 5% CO2 in a humidified incubator for 3 days. Percentage of survival was determined by MTS assay as described.

[3] = test system: S1-M1-80 cells; experiment: Clonogenicity assay, S1-M1-80; assay type: cell-based, human; settings: for colony formation, combination with TPT: S1-M1-80, combined with 1 μM of TPT (DAPT 1 μM)
Protocol: The procedure for colony formation assay consists of following steps. An appropriate number of cells per well were seeded on a 6-well plate in duplicate. The number of cells for seeding should be related to the aggressiveness of the treatment. The cells were incubated for 12 hours in a CO2 incubator at 37° C. and allow cells to attach to the plate. The cells were treated with peptides or (DAPT) to required concentrations. The cells were incubated in a in a CO2 incubator at 37° C. for about 10 days until cells in control well have formed colonies which are of a substantially good size (the minimum score is 100 cells per colony). After the incubation, the medium was removed and cells were rinsed with 5 ml 1×PBS (phosphate buffered saline. pH 7.2). The cells were then fixed with 1 ml methanol at room temperature for 10 min. After fixation, the cells were stained with 0.5% crystal violet solution and incubated at room temperature for 1 h. After staining, the plates were immersed in deionized water to rinse off crystal violet and air-dried at room temperature for overnight. The dry plates were pictured with scanner. The number of colonies in each well was counted by cell counter software.

[4] = test system: NICD1; experiment: NICD1 formation in S1-M1-80; assay type: cell-based, human; settings: 10 μM
Text: as §2

[5] = test system: HEK-293T-Jagged-1 cells; assay type: cell-based, human
Protocol: as §3

[6] = test system: DLL4-Notch1 signalling; experiment: Co-culture Notch luciferase reporter assay, DLL4-induced; assay type: cell-based, human; settings: DAPT 50 μM
Protocol: as §1
(§4) HEK-293T-Jagged-1 cells were seeded in 24-well plates in triplicate per sample group, and human HCT-116 cells were seeded in one 60 mm dish. Cells were allowed to settle, and were transfected the following day after the medium was changed to be antibiotic free. HCT-116 cells were transfected with 12×CSL-Luc and Renilla-Luc, using Lipofectamine® 3000 (Invitrogen™), according to the manufacturer's instructions. After 24 hours, HCT-116 cells were scraped and 2.5×10^4 cells in 1 mL complete medium per well were added to both 24-well plates. Peptides were treated to cells with the desired concentrations. N—[N-(3,5-difluorophenacetyl)-L-alanyl]-S-phenylglycine t-butyl ester (DAPT) was used as positive control. Cells were co-cultured for 12 hours before measure the luciferase activity. After incubation, cells were lysed with luciferase lysis buffer. Notch activity in cells expressing the 12×CSL-Luc reporter construct was measured by a luciferase assay using Dual-Luciferase® Reporter Assay System (Promega).

[7] = test system: Jag1-Notch1 signalling; experiment: Co-culture Notch luciferase reporter assay, Jag1-induced; assay type: cell-based, human; settings: for inhibition of Jag1-induced Notch signaling compared with N1: peptides 25 μM; for inhibition of Jag1-induced Notch1 signalling, dose response: reporter assay, DAPT 50 μM
Protocol: Jag1-Notch interaction is measured using a co-culture assay with one cell line expressing the Notch ligand Jagged1 (Jag1) and a second expressing Notch (either Notch1 or Notch2). A firefly luciferase reporter plasmid with 12 upstream CBF-1 binding site was transfected into signalling-receiving cells to report on Notch signalling (FIG. 1D). Peptides were tested for their activity in inhibiting Jag1-induced Notch signalling. Complete inhibition is equivalent to the background signal seen without induction (−Jag1). […] N1 (SEQ ID NO: 10) is a 15-mer derived from the EGF-like repeat 12 of Notch1 (C467-G481). This is consistent with the structural information that EGF-like repeat 12 of Notch1 is near the MNNL domain of Jag1 (FIGS. 1B and C).
as §1, §4

[8] = test system: S1-M1-80 cells; experiment: cells; assay type: cell-based, human
Protocol: as §3

[9] = test system: S1; experiment: cells; assay type: cell-based, human
Protocol: as §3

[10] = test system: DLL1-Notch1 signalling; experiment: Co-culture Notch luciferase reporter assay, DLL1-induced; assay type: cell-based, human; settings: DAPT 50 μM
Protocol: as §1, §4

[11] = test system: NICD1; experiment: NICD1 formation in HCT-116; assay type: cell-based, human; settings: peptides 100 μM
Protocol: (§5) This panel of peptides was also tested for their cytotoxic activities against two human colorectal cell lines (HCT-116 and HCT-15). At a concentration of 100 μM, N1 (SEQ ID NO: 10) is the only peptide that is cytotoxic to HCT-116 and HCT-15 cells (FIGS. 2B and C). Notch signaling results in the release of NICD1 from the membrane-bound Notch receptor.
as §2

[12] = test system: NICD1; experiment: NICD1 formation in HCT-15; assay type: cell-based, human; settings: peptides 100 μM
Protocol: as §5, §2

[13] = test system: DLL1-induced NICD1; experiment: Co-culture assay, DLL1-induced NICD1 level; assay type: cell-based, human
Protocol: as §1, §2

[14] = test system: NICD2; experiment: Co-culture assay, NICD2 formation (Jag1-Notch2); assay type: cell-based, human
Protocol: as §1, §2

[15] = test system: DLL4-induced NICD1; experiment: Co-culture assay, DLL4-induced NICD1 level; assay type: cell-based, human
Protocol: as §1, §2

| SMILES | Jag1-induced NICD1 level [1] | IC50 at 3 days [2] [µM] | colony formation, combination with TPT [3] [colonies/well] | colony formation ([3]; S1-M1-80, single agent 10 μM) [colonies/well] | IC50 [5] [µM] | inhibition of DLL4-Notch1 signalling [6] | inhibition of Jag1-induced Notch signaling compared with N1 [7] | inhibition of Jag1-induced Notch1 signalling, dose response [7] | IC50 [8] [µM] | IC50 [9] [µM] | inhibition of DLL1-Notch1 signalling [10] | other results |
| --- | --- | --- | --- | --- | --- | --- | --- | --- | --- | --- | --- | --- |
| CC[C@H](C)[C@H](NC(=O)[C@H](CCC(N)=O)NC(=O)[C@H](CC(=O)O)NC(=O)[C@H](CC(C)C)NC(=O)[C@@H](N)CS)C(=O)NCC(=O)N[C@@H](CCC(=O)O)C(=O)N[C@@H](Cc1ccccc1)C(=O)N[C@@H](CCC(N)=O)C(=O)N[C@@H](CS)C(=O)N[C@H](C(=O)N[C@@H](CS)C(=O)N[C@@H](CCC(=O)O)C(=O)O)[C@@H](C)CC [Peptide N102M479E, CLDQIGEFQCICE] (H-CLDQIGEFQCICE-OH; N-terminus and C-terminus assumed) | significantly decreased expression level of NICD1 | > 100 | 581 | 84 | > 100 | did not interfere | biggest improvement | inhibited Jag1-induced Notch1 signaling in dose dependent manner | 4.9 ± 0.2 | > 30 | did not interfere | colony formation of S1-M1-80, dose response [3]: effectively reduced colony formation; colony formation of S1-M1-80 ([3]; 1 μM): reduced by half; more potent than DAPT (colony formation) ([3]; 1 μM): 14%; colony formation of S1-M1-80 ([3]; 5 μM): almost eliminated the formation of all colonies; colony formation of S1-M1-80 ([3]; 10 μM): completely eliminated the formation of colonies; colony formation ([3]; S1-M1-80, single agent 1 μM): 925 colonies/well; effect with topotecan on colony formation of S1-M1-80 ([3]; TPT plus N102M479E): synergistic; increase of potency over TPT-DAPT combination (colony formation) ([3]; combined with 1 μM of TPT): 19%; NICD1 formation in S1-M1-80 cells [4]: totally suppress NICD1 formation |
| CC[C@H](C)[C@H](NC(=O)[C@H](CCC(N)=O)NC(=O)[C@H](CC(=O)O)NC(=O)[C@H](CC(C)C)NC(=O)[C@H](CS)NC(=O)[C@@H](N)CC(C)C)C(=O)NCC(=O)N[C@@H](CCC(=O)O)C(=O)N[C@@H](Cc1ccccc1)C(=O)N[C@@H](CCC(N)=O)C(=O)N[C@@H](CS)C(=O)N[C@H](C(=O)N[C@@H](CS)C(=O)N[C@@H](CCC(=O)O)C(=O)O)[C@@H](C)CC [N102T466L-M479E, LCLDQIGEFQCICE] (H-LCLDQIGEFQCICE-OH; N-terminus and C-terminus assumed) | – | > 100 | – | – | > 100 | – | – | – | 5.4 ± 1.2 | – | – | – |
| CC[C@H](C)[C@H](NC(=O)[C@H](CCC(N)=O)NC(=O)[C@H](CC(=O)O)NC(=O)[C@H](CC(C)C)NC(=O)[C@@H](N)CS)C(=O)NCC(=O)N[C@@H](CCC(=O)O)C(=O)N[C@@H](Cc1ccccc1)C(=O)N[C@@H](CCC(N)=O)C(=O)N[C@@H](CS)C(=O)N[C@H](C(=O)N[C@@H](CS)C(=O)N[C@@H](CC(=O)O)C(=O)O)[C@@H](C)CC [Peptide N102M479D, CLDQIGEFQCICD] (H-CLDQIGEFQCICD-OH; N-terminus and C-terminus assumed) | significantly decreased expression level of NICD1 | > 100 | – | – | > 100 | did not interfere | biggest improvement | inhibited Jag1-induced Notch1 signaling in dose dependent manner | 5.8 ± 0.2 | > 50 | did not interfere | – |
| C[C@H](NC(=O)Cc1cc(F)cc(F)c1)C(=O)N[C@H](C(=O)OC(C)(C)C)c1ccccc1 [DAPT, N—[N-(3,5-Difluorophenacetyl)-L-alanyl]-S-phenylglycine t-butyl ester, reference compound] | equally effective in inhibiting both NICD1 and NICD2 | – | 1074 | 717 | – | can inhibit all signaling | – | can inhibit all signaling | – | – | can inhibit all signaling | NICD1 formation in HCT-116 [11]: almost complete elimination of NICD1; NICD1 formation in HCT-15 [12]: almost complete elimination of NICD1; DLL1-induced NICD1 level [13]: can inhibit both; NICD2 formation [14]: equally effective in inhibiting both NICD1 and NICD2; DLL4-induced NICD1 level [15]: can inhibit both; IC50 ([8]; S1-M1-80 cells, 3 days, MTS, read-out: IC50 (μM) s1-m1-80): 17.1 ± 0.4 µM; IC50 ([9]; S1 cells, 3 days, MTS, read-out: IC50 (μM) S1): > 100 µM |
